We go through 1 compound from patent US7169809B2, “Nitric oxide releasing prodrugs of diaryl-2-(5H)-furanones as cyclooxygenase-2 inhibitors” (Merck Frosst Company, priority 2003, dated 2007).

Data set [1] has as its target T1, COX-1 (Homo sapiens, UniProt P23219).
T1 construct: Fresh blood from male or female volunteers is collected into vacutainers containing no anticoagulants; from tissue; host or cells: fresh human whole blood without anticoagulant, from male or female volunteers, allowed to clot for 1 h at 37 °C
Briefly: Human whole blood cyclooxygenase assay, COX-1 (clotting-induced TXB2 production). In kind it is cell-based. The conditions noted are these: clotting 1 h, n=3, read-out: IC50 for inhibition of clotting-induced TXB2 level. How it is done: (§1) Whole blood provides a protein and cell-rich milieu for the study of biochemical efficacy of anti-inflammatory compounds such as COX-2 inhibitors and NSAIDs. To study the inhibitory activities of these compounds on the two isoforms of cyclooxygenase (COX-1 and COX-2), human blood is either stimulated with lipopolysaccharide (LPS) for 24 hours to induce COX-2 or the blood is allowed to clot spontaneously to activate COX-1. The production of prostaglandin E2 (PGE2) and thromboxane B2 (TXB2) are measured by immunoassay at the end of the incubation as readouts of COX-2 and COX-1 activity, respectively.
(§2) Human whole blood assays for COX-1 and COX-2 activity, previously reported (Brideau et al, 1996) are performed as described below.
Fresh blood from male or female volunteers is collected into vacutainers containing no anticoagulants. These subjects have no apparent inflammatory conditions and have not taken any NSAIDs for at least 7 days prior to blood collection. Aliquots of 500 μL are immediately transferred to polypropylene tubes preloaded with 2 μL of DMSO or 2 μL of test compounds. The tubes are vortexed and incubated at 37° C. for 1 h to allow the blood to clot. At the end of the incubation, serum is obtained by centrifugation (3,000 rpm for 10 min at […]). […]

The target of data set [2] is T2, COX-2 (Homo sapiens, UniProt P35354).
T2 construct: Fresh blood is collected in heparinized tubes by venipuncture from healthy male volunteers; from tissue; host or cells: fresh heparinized human whole blood from healthy male volunteers, LPS-stimulated for 24 h
T2 sequence (P35354 18-604): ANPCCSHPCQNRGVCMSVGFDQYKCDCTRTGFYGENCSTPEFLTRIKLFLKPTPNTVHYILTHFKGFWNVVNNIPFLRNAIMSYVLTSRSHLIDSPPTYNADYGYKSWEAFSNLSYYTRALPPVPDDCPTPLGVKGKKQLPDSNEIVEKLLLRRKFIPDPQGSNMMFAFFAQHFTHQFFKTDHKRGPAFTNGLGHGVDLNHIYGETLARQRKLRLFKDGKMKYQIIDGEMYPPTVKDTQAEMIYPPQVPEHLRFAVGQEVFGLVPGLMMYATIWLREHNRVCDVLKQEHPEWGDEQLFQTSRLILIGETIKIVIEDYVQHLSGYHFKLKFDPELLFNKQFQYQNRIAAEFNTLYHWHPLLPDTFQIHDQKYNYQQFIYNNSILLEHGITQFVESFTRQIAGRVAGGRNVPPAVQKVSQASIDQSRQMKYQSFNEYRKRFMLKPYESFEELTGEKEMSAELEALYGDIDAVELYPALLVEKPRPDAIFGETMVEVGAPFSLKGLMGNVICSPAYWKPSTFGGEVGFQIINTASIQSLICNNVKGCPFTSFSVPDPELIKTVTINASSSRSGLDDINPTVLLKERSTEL
The data set is described as follows: Human whole blood cyclooxygenase assay, COX-2 (LPS-induced PGE2 production). In kind it is cell-based. As for the experimental part:
as §1, §2
Fresh blood is collected in heparinized tubes by venipuncture from healthy male volunteers. These subjects have no apparent inflammatory conditions and have not taken any NSAIDs for at least 7 days prior to blood collection. The blood is initially pre-incubated with bacterial lipopolysaccharide (LPS) at 100 μg/ml (Sigma Chem, #L-2630 from E. coli, serotype 0111:B4; diluted in 0.1% w/v bovine serine albumin in phosphate buffered saline). Five minutes later, 500 μL aliquots of the LPS-treated blood aree incubated with 2 μL vehicle (DMSO) or 2 μL of test compounds in DMSO for 24 hr at 37° C. (for induction of COX-2). […]

Data set [3] relates to gastric erosions. The data set is described as follows: Gastric erosion model in rats (co-dosed with aspirin). The data set is classed as in vivo, rat. The conditions noted are these: Wistar rats, compared to rofecoxib dosed with aspirin, 3 hr. As for the experimental part: The gastric protective effects of the combination of the present invention co-administered with aspirin may be evaluated in the following assay.
Male Wistar rats (200–250 g) were fasted for 16–18 h prior to use for experiment. Aspririn, rofecoxib in combination with aspirin (dosed separately), or test compound in combination with aspirin (dosed separately) were given on the morning of the experiment at a dosing volume of 1 ml/kg in 0.5% methocel. Three hr later, the animals were euthanized by CO2 inhalation and the stomach removed, rinsed in saline and prepared for imaging processing. Microscopic pictures of the stomach were taken using a digital camera and gastric erosions were measured using an imaging software by an observer unaware of the treatment groups. The length of gastric erosions was measured in mm and the total length of all erosions from each stomach was obtained and used as gastric damage score.
This model is also described in S. Fiorucci, et al., Gastroenterology, vol. 123, pp. 1598–1606, 2002 and M. Souza, et al., Am. J. Physiol. Gastrointest. Liver Physiol., vol. 285, pp. G54–G61, 2003.

Data set [4] relates to carrageenan-induced rat paw edema. Briefly: Carrageenan-induced rat paw edema assay. In kind it is in vivo. The conditions noted are these: oral, 1 hr pretreatment, Sprague-Dawley rats, paw volume at 3 h, read-out: inhibition of carrageenan-induced edema response. How it is done:
The carrageenan-induced rat paw edema assay is an established assay for evaluating the efficacy of conventional, non-selective NSAIDs in acute inflammation (Winter and Flataker, 1965; Mukherjee et al., 1996; Vinegar et al., 1987).
Male Sprague-Dawley rats (200–250 g) are fasted for 16–18 h prior to oral administration of either the vehicle (0.5% methocel) or test compound. One hour later, a line was drawn using a permanent marker at a level above the ankle in one hind paw to define the area of the paw to be monitored. The paw volume (V0) is measured using a plethysmometer (Ugo-Basile, Italy) based on the Archimedes principle of water displacement. The rats are then injected subplantarly with 0.05 mL of a 1% carrageenan (Sigma Chem.) solution in saline using a syringe with a 27-gauge needle (i.e. 500 μg carrageenan per paw). Three hours later, the paw volume (V3) is measured again and the increases in paw volume (V3−V0) is calculated. Paw edema is compared with the vehicle-control group and the percent inhibition calculated taking the values in the control group as 0%.
In general terms: In the carrageenan paw model, swelling and tenderness develop within hours.

T1 sequence (P23219 24-599): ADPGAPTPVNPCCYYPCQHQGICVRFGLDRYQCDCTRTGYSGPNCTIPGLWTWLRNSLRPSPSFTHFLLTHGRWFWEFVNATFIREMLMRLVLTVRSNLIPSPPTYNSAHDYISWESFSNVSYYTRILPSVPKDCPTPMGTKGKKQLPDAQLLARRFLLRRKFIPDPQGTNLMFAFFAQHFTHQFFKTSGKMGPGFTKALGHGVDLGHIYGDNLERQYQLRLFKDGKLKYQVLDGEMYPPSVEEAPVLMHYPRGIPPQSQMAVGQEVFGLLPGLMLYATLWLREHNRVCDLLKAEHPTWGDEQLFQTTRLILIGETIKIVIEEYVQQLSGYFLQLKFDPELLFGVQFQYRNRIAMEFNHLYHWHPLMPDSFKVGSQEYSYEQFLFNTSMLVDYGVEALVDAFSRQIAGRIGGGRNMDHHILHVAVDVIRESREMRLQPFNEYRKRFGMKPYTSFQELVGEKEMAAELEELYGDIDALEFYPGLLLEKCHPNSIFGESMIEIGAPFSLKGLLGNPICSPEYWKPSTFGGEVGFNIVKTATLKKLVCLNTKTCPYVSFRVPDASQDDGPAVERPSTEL

Turning to `CC(=O)OC/C(=C(\C(=O)OCCCCCCO[N+](=O)[O-])c1ccccc1)c1ccc(S(C)(=O)=O)cc1` [Example 1, 6-(nitrooxy)hexyl (2Z)-4-(acetyloxy)-3-[4-(methylsulfonyl)phenyl]-2-phenylbut-2-enoate], the IC50 in data set [1] is 7.8 ± 2.6 µM; in data set [2] (LPS-stimulated human whole blood, 24 hr, n=6, read-out: IC50 for the inhibition of PGE2 production in a human whole blood assay), 0.22 ± 0.04 µM. Moreover, in data set [2] (in vitro human peripheral blood assay, ratio of COX-1 to COX-2 IC50), the COX1/COX2 selectivity was found to be 35 fold. The “gastric protection (gastric damage score)” value in data set [3] is “significant gastric protection”. The inhibition at 1 mg/kg in data set [4] worked out at 49%.

What is called IC50 is the concentration at which inhibition is half-maximal. For orientation: inhibition means the percentage by which the read-out fell short of the control.
